Assays:
[1] = tested on: rats; assay: visceral hyperalgesia in rats, oral administration; format: in vivo
[2] = tested on: stressed subjects; assay: gastrointestinal motility in stressed subjects, oral administration; format: in vivo
[3] = tested on: stressed and non-stressed mice; details: cited from earlier work

COc1ccc(CN(C(=O)C(N)Cc2c(C)cc(C(N)=O)cc2C)C(C)c2nc(-c3ccccc3)c[nH]2)cc1C(=O)O (stereo not shown) [active ingredient]
anti-visceral hyperalgesic effects [1]: providing anti-visceral hyperalgesic effects
gastrointestinal (GI) motility [2]: efficacious in normalizing gastrointestinal (GI) motility

CN(C)C(=O)C(CCN1CCC(O)(c2ccc(Cl)cc2)CC1)(c1ccccc1)c1ccccc1 [loperamide]
dose range of the effect [3]: narrow dose range
gastrointestinal transit and fecal output [3]: completely prevented fecal output

Source: patent US11007179B2, “Opioid receptor modulator dosage formulations” (Allergan Holdings Unlimited Company, priority 2013, dated 2021)
